Test results: US6599892B2, “7-alkylidene cephalosporanic acid derivatives and methods of using the same” (Research Corporation Technologies, Inc., priority 1994, dated 2003)
Where a name gives a salt, the structure may show the parent alone.

Tests used:
[1] = molecular target: Class C β-lactamase of Enterobacter cloacae P99 (Enterobacter cloacae, UniProt P05364); type: biochemical; details: for IC50: 10 minute incubation of enzyme and inhibitor, nitrocefin substrate, read-out: IC50 (nM) E. cloacea P99
Protocol: (§1) The IC50 value of each compound was determined as follows. Following a 10 minute incubation of a dilute solution of enzyme (2.56 nm) and inhibitor (<0.64 mM), a […] of this incubation mixture was then further diluted into 1 mL nitrocefin solution, and the rate of hydrolysis was measured during a 1 minute period by monitoring the absorbance of nitrocefin as a function of time.

[2] = molecular target: E. cloacae SC 12368 β-lactamase (Enterobacter cloacae, UniProt P05364); type: biochemical; details: 10 minute incubation of enzyme and inhibitor; nitrocefin substrate; read-out: IC50 (nM) E. cloacea SC12368
Protocol: as §1

[3] = molecular target: E. coli. W3310 β-lactamase (TEM2) (Escherichia coli, UniProt P62593, Q37K); details: read-out: IC50 (nM) E. Coli WC3310; 10 minute incubation of enzyme and inhibitor; nitrocefin substrate

In the case of `CC(=O)OCC1=C(C(=O)O)N2C(=O)/C(=C/CO)C2S(=O)(=O)C1` (stereo not shown) [Compound 7j, Sodium salt of 7-[(Z)-hydroxymethylmethylene] cephalosporanic acid sulfone], the IC50 [1] is reported as over 20000 nM, the IC50 [2] is reported as over 20000 nM and the IC50 [3] is reported as over 20000 nM.
`CC(=O)OCC1=C(C(=O)O)N2C(=O)C(=C(Br)Br)C2SC1` (stereo not shown) [Compound 6a, Sodium salt of 7-[dibromomethylene] cephalosporanic acid] gave an IC50 [1] of over 20000 nM, an IC50 [2] of over 20000 nM and an IC50 [3] of over 20000 nM.
Work on “Sodium salt of 7-[(Z)-t-butoxymethylene] cephalosporanic acid sulfone [Compound 7g]” yielded an IC50 [1] of 7800 nM and an IC50 [2] of 5900 nM.
`CON(C)C(=O)/C=C1/C(=O)N2C(C(=O)O)=C(COC(C)=O)CSC12` (stereo not shown) [Compound 6k, Sodium of salt of 7-[(Z)-N-methoxy-N-methylamino-carbonylmethylene] cephlosporanic acid] showed an IC50 [1] of over 20000 nM, an IC50 [2] of over 20000 nM and an IC50 [3] of over 20000 nM.
Work on `CC(=O)OCC1=C(C(=O)O)N2C(=O)C(=C(Br)Br)C2S(=O)(=O)C1` (stereo not shown) [Compound 7a, Sodium salt of 7-[dibromomethylene] cephalosporanic acid sulfone] yielded an IC50 [1] of over 20000 nM, an IC50 [2] of over 20000 nM and an IC50 [3] of over 20000 nM.
Work on `CC(=O)OCC1=C(C(=O)O)N2C(=O)/C(=C/c3ccccc3)C2S(=O)(=O)C1` (stereo not shown) [Compound 7d, Sodium salt of 7-[(Z)-benzylidene] cephalosporanic acid sulfone] yielded an IC50 [1] of 6250 nM, an IC50 [2] of 6800 nM and an IC50 [3] of over 20000 nM.
In the case of `CC(=O)OCC1=C(C(=O)[O-])N2C(=O)/C(=C/c3ccccn3)C2S(=O)(=O)C1.[Na+]` (stereo not shown) [Compound 7e, Sodium salt of 7-[(Z)-(2′-pyridyl)methylene] cephalosporanic acid sulfone], the “fold increase in activity of sulfone over its sulfide 6e” value [1] is reported as 1300 fold, the “fold increase in activity over tazobactam” value [1] is reported as 20 fold and the IC50 [1] is reported as 25 nM. It also gave an IC50 [2] of 25 nM and an IC50 [3] of 800 nM.
With `CC(=O)OCC1=C(C(=O)O)N2C(=O)C(=C(Cl)Cl)C2SC1` (stereo not shown) [Compound 6b, Sodium salt of 7-[dichloromethylene] cephalosporanic acid] the IC50 [1] was over 20000 nM, the IC50 [2] was over 20000 nM and the IC50 [3] was over 20000 nM.
Work on `CC(=O)OCC1=C(C(=O)O)N2C(=O)/C(=C\Br)C2S(=O)(=O)C1` (stereo not shown) [Compound 7l, Sodium salt of 7-(E)-[bromomethylene] cephalosporanic acid sulfone] yielded an IC50 [1] of over 20000 nM, an IC50 [2] of over 20000 nM and an IC50 [3] of over 20000 nM.
In the case of `CC(=O)OCC1=C(C(=O)O)N2C(=O)/C(=C/C(C)(C)C)C2S(=O)(=O)C1` (stereo not shown) [Compound 7m, Sodium salt of 7-[(Z)-t-butylmethylene] cephalosporanic acid sulfone], the IC50 [1] is reported as over 20000 nM, the IC50 [2] is reported as over 20000 nM and the IC50 [3] is reported as over 20000 nM.
Work on `CC(=O)OCC1=C(C(=O)O)N2C(=O)/C(=C/c3ccccn3)C2SC1` (stereo not shown) [Compound 6e, Sodium salt of ^7-[(Z)-(2′-pyridyl)methylene] cephalosporanic acid] yielded an IC50 [1] of over 20000 nM, an IC50 [2] of over 20000 nM and an IC50 [3] of over 20000 nM.
With `CC(=O)OCC1=C(C(=O)O)N2C(=O)/C(=C/C(=O)OC(C)(C)C)C2SC1` (stereo not shown) [Compound 6g, Sodium salt of 7-[(Z)-t-butoxycarbonylmethylene] cephlosporanic acid] the IC50 [1] was 2500 nM, the IC50 [2] was over 20000 nM and the IC50 [3] was over 20000 nM.
In the case of `CC(=O)OCC1=C(C(=O)O)N2C(=O)/C(=C\c3ccccc3)C2S(=O)(=O)C1` (stereo not shown) [Compound 7c, Sodium salt of 7-[(E)-benzylidene] cephalosporanic acid sulfone], the IC50 [1] is reported as over 20000 nM, the IC50 [2] is reported as over 20000 nM and the IC50 [3] is reported as over 20000 nM.
`CC(=O)/C=C1/C(=O)N2C(C(=O)O)=C(COC(C)=O)CSC12` (stereo not shown) [Compound 6h, Sodium salt of 7-[(Z)-acetylmethylene] cephlosporanic acid] showed an IC50 [1] of over 20000 nM, an IC50 [2] of over 20000 nM and an IC50 [3] of over 20000 nM.
With `CC(=O)OCC1=C(C(=O)O)N2C(=O)C(=C(Cl)Cl)C2S(=O)(=O)C1` (stereo not shown) [Compound 7b, Sodium salt of 7-[dichloromethylene] cephalosporanic acid sulfone] the IC50 [1] was over 20000 nM, the IC50 [2] was over 20000 nM and the IC50 [3] was 8300 nM.
`CC(=O)OCC1=C(C(=O)O)N2C(=O)/C(=C\Br)C2SC1` (stereo not shown) [Compound 6l, Sodium salt of 7-[(E)-bromomethylene] cephalosporanic acid] showed an IC50 [1] of over 20000 nM, an IC50 [2] of over 20000 nM and an IC50 [3] of over 20000 nM.
`CC(=O)OCC1=C(C(=O)O)N2C(=O)/C(=C/C(C)(C)C)C2SC1` (stereo not shown) [Compound 6m, Sodium salt of 7-[(Z)-t-butylmethylene] cephalosporanic acid] showed an IC50 [1] of over 20000 nM, an IC50 [2] of over 20000 nM and an IC50 [3] of over 20000 nM.
